Where two headings read alike, the source gives them in different places.
Assays:
[1] = tested on: locust brain barrier; experiment: Visual inspection of Evans Blue permeation through the locust brain barrier; assay type: in vitro ADME, Locusta migratoria; conditions: 5 minutes in Evans Blue; neural lamella removed
Method: A cut was made through the frontal part of the head of the adult locusta migratoria. Each brain was placed for 5 minutes in a microtiter well containing a mixture of Evans Blue. The neural lamella was removed from the brain.

[2] = tested on: grasshopper BBB (locusta migratoria brain in its cuticle shell)
Method: 1. […] The insects may be obtained from local suppliers or bred in house. The grasshoppers were reared under crowded conditions at 28° C. and a 12:12 dark:light photocycle and fed fresh grass and bran. Before experiments the grasshoppers were fed ecologically cultivated wheat for two weeks. Animals used are adult males (in some experiments females) between two to four weeks after adult emergence. A cut is made through the frontal part of the locust head comprising the most frontal parts including the antennae, the compound eyes, the brain and all neural connections between the brain and the antennae and the eyes. This preparation in its cuticle shell is placed in a well of a microtitre plate containing the test solution. After various times of exposure the preparation is washed in saline and the brain is dissected under microscope with fine forceps. The neural lamella surrounding the brain is removed in saline and the brain is then […] in saline, centrifuged and the supernatant frozen until analyses. Drug concentration is analysed by HPLC, LC/MSMS or other methods.
A cut was made through the frontal part of the head of adult female locusta migratoria. Each brain in its cuticle shell was placed in a 0.12 mg/ml mianserin solution for 5 minutes. The brain was prepared in saline and removed from the cuticle shell and three brains were placed in each test tube containing 100 ul distilled H2O. 200 ul ACN was added to each tube and the tubes were placed in a sonicator and the brains were disintegrated by approximately 5 seconds of sonication. The samples containing the disintegrated brains were centrifuged for 5 minutes (10000 g at 4° C.).
A cut was made through the frontal part of the head of adult female locusta migratoria. Each brain in its cuticle shell was placed in a 0.12 mg/ml mianserin solution for 5 minutes. The brain was prepared in saline and removed from the cuticle shell. The brains were washed in Saline. After wash three brains were placed in each test tube containing 100 ul distilled H2O. 200 ul ACN was added to each tube and the tubes were placed in a sonicator and the brains were disintegrated by approximately 5 seconds of sonication.
A cut was made through the frontal part of the head of adult female locusta migratoria. Each brain in its cuticle shell was placed in a 0.12 mg/ml mianserin solution for 5 minutes. The brain was prepared in saline and removed from the cuticle shell. To stain the neural lamella Evans Blue was added and the neural lamella was removed. Three brains were placed in each test tube containing 100 ul distilled H2O. 200 ul ACN was added to each tube and the tubes were placed in a sonicator and the brains were disintegrated by approximately 5 seconds of sonication.
A cut was made through the frontal part of the head of the adult locusta migratoria. Each brain in its cuticle shell was placed in a 0.9 mg/ml mianserin solution for 5 minutes. The brain was prepared in saline and removed from the cuticle shell. Three brains were placed in a test tube containing 100 ul PBS. 200 ul ACN was added to each tube. The tubes were placed in a sonicator and the brains were disintegrated by approximately 5 seconds of sonication.
A cut was made through the frontal part of the head of the adult locusta migratoria. Each brain was placed for 5 minutes in a microtiter well with an approximately 0.95 mg/ml solution of mianserin. To stain the neural lamella Evans Blue was added and the neural lamella was removed. Two brains are placed in each test tube and 100 ul distilled H2O and 200 ul ACN is added. The tubes were placed in a sonicator and the brains were disintegrated by approximately 5 seconds of sonication.
A cut was made through the frontal part of the head of the adult locusta migratoria. […] To stain the neural lamella Evans Blue was added and the neural lamella was removed.

[3] = tested on: Blattodea BBB; conditions: for average concentration in brain supernatant measured by LCMS: Blattodea
Method: A cut was made through the frontal part of the head of the Blattodea. Each brain was placed for 5 minutes in a microtiter well with an approximately 1.0 mg/ml solution of trazodone. To stain the neural lamella Evans Blue was added and the neural lamella was removed. Two brains are placed in each test tube and 50 ul distilled H2O and 100 ul ACN is added. The tubes were placed in a sonicator and the brains were disintegrated by approximately 5 seconds of sonication.

[4] = Locusta migratoria, 5 min, 0.9 mg/ml

## Cc1cc(-c2ccc(/N=N/c3ccc4c(S(=O)(=O)O)cc(S(=O)(=O)O)c(N)c4c3O)c(C)c2)ccc1/N=N/c1ccc2c(S(=O)(=O)O)cc(S(=O)(=O)O)c(N)c2c1O [Evans Blue]
[1]
  permeation through the locust brain barrier (visual signs in brain): no significant permeation

## Cn1c(=O)c2c(ncn2C)n(C)c1=O [caffeine]
[2]; approximately 0.78 mg/ml solution, 5 minutes, neural lamella removed, two brains per tube
  average concentration in brain supernatant measured by LCMS: 1533 ng/mL
[2]; conclusion from the examples
  permeation of the grasshopper BBB (in words): permeate the grasshopper BBB to a much larger extent than peripheral acting drugs
[3]; approximately 0.1 mg/ml solution, 5 minutes, neural lamella removed, two brains per tube
  average concentration in brain supernatant measured by LCMS: 152 ng/mL
[3]; approximately 1.0 mg/ml solution, 5 minutes, neural lamella removed, two brains per tube
  average concentration in brain supernatant measured by LCMS: 1028 ng/mL
[3]; conclusion from Examples AB-AG
  permeation of the Blattodea BBB (in words): permeate the Blattodea BBB to a much larger extent than atenolol

## CN1CCN2c3ccccc3Cc3ccccc3C2C1 (stereo not shown) [mianserin]
[2]; Locusta migratoria, 5 min, 0.1 mg/ml
  [with lamella]/[without lamella] ratio: 1.7
[2]; [4]
  [with lamella]/[without lamella] ratio: 2.3
[2]; Locusta migratoria, 5 min, 0.95 mg/ml
  average concentration in brain supernatant measured by LCMS: 1439 ng/mL

## CC(C)NCC(O)COc1cccc2ccccc12 (stereo not shown) [propranolol]
[2]
  permeation of the grasshopper BBB (in words): permeate the grasshopper BBB to a much larger extent than peripheral acting drugs
[2]; Locusta migratoria, 5 min, 0.72 mg/ml
  average concentration in brain supernatant measured by LCMS: 674 ng/mL

## O=c1n(CCCN2CCN(c3cccc(Cl)c3)CC2)nc2ccccn12 [trazodone]
[2]
  permeation of the grasshopper BBB (in words): permeate the grasshopper BBB to a much larger extent than peripheral acting drugs
[2]; [4]
  average concentration in brain supernatant measured by LCMS: 1317 ng/mL
[3]
  permeation of the Blattodea BBB (in words): permeate the Blattodea BBB to a much larger extent than atenolol
[3]; 5 min, 0.1 mg/ml
  average concentration in brain supernatant measured by LCMS: 127 ng/mL
[3]; 5 min, 1 mg/ml
  average concentration in brain supernatant measured by LCMS: 768 ng/mL
